Reference: PubChem BioAssay AID504560 (Southern Research Specialized Biocontainment Screening …, 2011)

System: human PBMC HIV-1 CCR5-tropic replication, RT activity
Test: inhibitors of CCR5-tropic HIV-1 replication in PBMCs, dose response, cell-based, human PBMC, set 2 (AID 504560)

Compound | IC50 [µM]
COc1ccccc1Cn1c(O)cc2nn(-c3nc4ccccc4s3)c(=O)c-2c1C | 5.4
Cc1c2c(=O)n(-c3nc4ccccc4s3)nc-2cc(O)n1Cc1ccccc1Cl | 6.31
Cc1c2c(=O)n(-c3nc4ccccc4s3)nc-2cc(O)n1Cc1ccncc1 | 1.89
COc1ccc(Cn2c(O)cc3nn(-c4nc5ccccc5s4)c(=O)c-3c2C)cc1 | 2.29
Cc1c2c(=O)n(-c3nc4ccccc4s3)nc-2cc(O)n1CCC(C)C | 5.4
Cc1c2c(=O)n(-c3nc4ccccc4s3)nc-2cc(O)n1CCc1cccs1 | 3.47
Cc1c2c(=O)n(-c3nc4ccccc4s3)nc-2cc(O)n1Cc1cccnc1 | 0.92
COc1ccc(CCn2c(O)cc3nn(-c4nc5ccccc5s4)c(=O)c-3c2C)cc1 | 6.11
Cc1c2c(=O)n(-c3nc4ccccc4s3)nc-2cc(O)n1Cc1ccc(F)cc1 | 3.14
Cc1c2c(=O)n(-c3nc4ccccc4s3)nc-2cc(O)n1CCc1ccc(O)cc1 | 1.51
Cc1c2c(=O)n(-c3nc4ccccc4s3)nc-2cc(O)n1Cc1ccccc1 | 2.42
Cc1c2c(=O)n(-c3nc4ccccc4s3)nc-2cc(O)n1Cc1cccs1 | 1.97
Cc1c2c(=O)n(-c3nc4ccccc4s3)nc-2cc(O)n1C1CC1 | 0.72
